The results in this text go back to publication PMC5465257, “Evaluation of JNJ-54717793 a Novel Brain Penetrant Selective Orexin 1 Receptor Antagonist in Two Rat Models of Panic Attack Provocation” (Frontiers in Pharmacology, 2017).

Read-outs that look alike come from different tables or passages of the source.

In one data set the target is T1, human OX2R (Homo sapiens, UniProt O43614).
T1 sequence (O43614 1-444): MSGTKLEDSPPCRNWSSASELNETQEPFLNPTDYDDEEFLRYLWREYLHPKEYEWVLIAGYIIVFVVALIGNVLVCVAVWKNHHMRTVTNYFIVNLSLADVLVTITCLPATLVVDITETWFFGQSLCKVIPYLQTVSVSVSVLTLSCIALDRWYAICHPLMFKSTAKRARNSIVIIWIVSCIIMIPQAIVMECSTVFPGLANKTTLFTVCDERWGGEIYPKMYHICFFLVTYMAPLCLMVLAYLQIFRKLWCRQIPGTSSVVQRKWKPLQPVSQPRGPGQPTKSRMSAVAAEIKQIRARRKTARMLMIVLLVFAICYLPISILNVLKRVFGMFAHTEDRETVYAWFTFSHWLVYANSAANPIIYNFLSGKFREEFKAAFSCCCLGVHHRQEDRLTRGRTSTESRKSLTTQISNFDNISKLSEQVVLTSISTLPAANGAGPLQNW
Kind of data set: Calcium mobilization functional assay, PFSK-1 cells, OX-B. The format is cell-based. A general note: Calcium flux is commonly read through the fluorescence of an indicator in the cells.

The target in the next data set is T2, human OX1R (Homo sapiens, UniProt O43613).
T2 sequence (O43613 1-425): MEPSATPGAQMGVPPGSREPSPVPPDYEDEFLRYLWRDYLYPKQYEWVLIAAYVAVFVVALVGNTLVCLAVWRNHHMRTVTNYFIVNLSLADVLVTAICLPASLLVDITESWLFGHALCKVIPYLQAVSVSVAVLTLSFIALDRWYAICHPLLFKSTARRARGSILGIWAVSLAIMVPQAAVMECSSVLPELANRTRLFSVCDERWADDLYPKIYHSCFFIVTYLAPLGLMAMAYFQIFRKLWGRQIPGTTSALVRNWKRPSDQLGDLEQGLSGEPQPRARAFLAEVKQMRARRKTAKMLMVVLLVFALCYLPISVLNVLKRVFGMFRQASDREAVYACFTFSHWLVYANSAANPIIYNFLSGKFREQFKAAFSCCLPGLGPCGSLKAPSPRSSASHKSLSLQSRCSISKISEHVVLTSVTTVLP
Kind of data set: Calcium mobilization functional assay, CHO-K1 cells, OX-A EC80.

A short description of data set [1]: Ex vivo OX1R receptor occupancy autoradiography in rat brain (tenia tecta), with plasma bioanalysis. To be noted: male, Sprague-Dawley, plasma. The protocol:
(§1) Experiments were performed as previously described ([Dugovic et al., 2009]) in male Sprague-Dawley rats (300–400 g, Charles River Laboratories, San Diego, CA, United States). The animals were euthanized using carbon dioxide and decapitated at different time points after drug administration (n = 3 per time point or dose regimen). Brains were rapidly frozen on powdered dry ice and stored at -80°C before sectioning. Plasma samples were also collected for bioanalysis (LC–MS/MS). Twenty micron thick tissue sections at the level of the tenia tecta were prepared for autoradiography. OX1R radioligand binding autoradiography was determined at room temperature with 5 nM [^3H]SB-674042. Sections were incubated for 10 min to minimize dissociation. Non-specific binding was determined in the presence of 10 μM SB-674042. Ex vivo receptor labeling was expressed as the percentage of receptor labeling in corresponding brain areas (i.e., tenia tecta) of vehicle-treated animals. The percentage of receptor occupancy was plotted against time or dosage using GraphPad Prism (GraphPad Software, San Diego, CA, United States). Percentage of receptor occupancy was also plotted against drug plasma or brain concentration. Pharmacokinetic parameters were analyzed using a non-compartmental model using the software package WinNonlin Version 4.0.1 (Pharsight, Palo Alto, CA, United States).
(§2) In vivo occupancy of the OX1R was assessed by ex vivo receptor binding autoradiography of [^3H]SB-674042 in rat brain tissue sections at the level of the tenia tecta. Time-dependency and dose-dependency were assessed after oral dosing (Figure 2).

In data set [2] the target is T3, OX1R in rat brain (tenia tecta) (Rattus norvegicus, UniProt P56718).
T3 construct: Twenty micron thick tissue sections at the level of the tenia tecta were prepared for autoradiography; from tissue; host or cells: brain sections (tenia tecta) of male Sprague-Dawley rats
T3 sequence (P56718 1-416): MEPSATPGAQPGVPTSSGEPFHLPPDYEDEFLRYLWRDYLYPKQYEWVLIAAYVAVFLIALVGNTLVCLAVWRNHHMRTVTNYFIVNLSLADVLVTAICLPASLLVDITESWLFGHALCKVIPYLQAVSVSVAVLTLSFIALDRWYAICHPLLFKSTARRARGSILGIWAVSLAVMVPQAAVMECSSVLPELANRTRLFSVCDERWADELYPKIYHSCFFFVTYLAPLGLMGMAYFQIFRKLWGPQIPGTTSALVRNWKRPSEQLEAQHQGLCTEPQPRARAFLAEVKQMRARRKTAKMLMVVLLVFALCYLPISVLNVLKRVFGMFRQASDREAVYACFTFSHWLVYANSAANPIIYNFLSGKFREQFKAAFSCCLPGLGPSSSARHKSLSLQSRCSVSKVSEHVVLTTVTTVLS
Described as above. The protocol: as §1, §2

Another data set has as its target T4, rat OX1R (Rattus norvegicus, UniProt P56718).
T4 sequence (P56718 1-416): T3 sequence (P56718 1-416)
The experiment in a line: Calcium mobilization functional assay, HEK-293 cells, OX-A EC80.

Description for human OX1R: (§3) Stably transfected CHO-K1 cells for the human OX1R or HEK-293 cells for the rat OX1R were used for the in vitro functional assays. […] Since the intracellular calcium response is transient and not consistent with equilibrium assumptions, the assays were performed by giving a standard, EC80 dose of the OX agonist and calculating a pKB from inhibition of the agonist response by a dose range of the antagonists. The cells were plated in black 96 well tissue culture plates with clear bottoms at 50,000 cells/well and grown overnight at 37°C in 5% carbon dioxide (CO2). […] The cell plate was then transferred to the Molecular Devices Fluorometric Imaging Plate Reader (FLIPR) Tetra instrument, which adds the OX agonist and monitors changes in fluorescence which reflect intracellular calcium levels.
(§4) Results were calculated using GraphPad Prism (San Diego, CA, United States) software. Raw data from the FLIPR Tetra was exported as the difference between maximum and minimum fluorescence observed for each well. A non-linear regression was used to determine the agonist EC50 and antagonist IC50 for each plate, then the antagonist KB was calculated according to Cheng and Prusoff ([Cheng and Prusoff, 1973]).
Description for human OX2R: The human OX2R functional assay used PFSK-1 cells which are a human neuroectodermal cell line that innately expresses the OX2R. Since the intracellular calcium response is transient and not consistent with equilibrium assumptions, the assays were performed by giving a standard, EC80 dose of the OX agonist and calculating a pKB from inhibition of the agonist response by a dose range of the antagonists. The cells were plated in black 96 well tissue culture plates with clear bottoms at 50,000 cells/well and grown overnight at 37°C in 5% carbon dioxide (CO2). […] The cell plate was then transferred to the Molecular Devices Fluorometric Imaging Plate Reader (FLIPR) Tetra instrument, which adds the OX agonist and monitors changes in fluorescence which reflect intracellular calcium levels.
as §4
Description for rat OX1R: as §3, §4

Usually ED50 stands for the midpoint of the dose-response relation. A low value points to greater potency. Turning to `O=C(c1cccc(F)c1-c1ncccn1)N1[C@@H]2CC[C@H]1[C@H](Nc1cnc(C(F)(F)F)cn1)C2` [JNJ-54717793, (1S,2R,4R)-7-([(3-fluoro-2-pyrimidin-2-ylphenyl)carbonyl]-N-[5-(trifluoromethyl)pyrazin-2-yl]-7-azabicyclo[2.2.1]heptan-2-amine)], the Kb on human OX2R is 309 nM; at human OX1R it was 16.6 nM; at rat OX1R, 35.5 nM. Also, the concentration at 60 min is 84 ng/mL in data set [1] (1.3 mg/kg, oral, 95% confidence interval 26 to 277 ng/ml, read-out: plasma exposure corresponding to ED50) and around 311 ng/mL in data set [1] (3 mg/kg oral, read-out: plasma concentration at plateau of occupancy). In data set [1] (30 mg/kg oral, 15 min, read-out: plasma concentration at maximal OX1R occupancy), the concentration at 15 min came out at 3730 ± 440 ng/mL. For the same compound, in data set [2] (30 mg/kg oral, after the first 6 h), the “level of OX1R occupancy” value is “negligible”. Besides, the receptor occupancy at 30 mg/kg in data set [2] (30 mg/kg oral, first 6 h, read-out: level of OX1R occupancy) was above 58%; in data set [2] (30 mg/kg oral, observed at 15 min, read-out: maximal OX1R occupancy), 87 ± 3%. The same compound showed an ED50 in data set [2] (oral, 60 min after treatment) of 1.3 mg/kg. Besides, the receptor occupancy at 3 mg/kg in data set [2] (oral, reached at 3 mg/kg, 60 min after treatment, read-out: plateau for maximal OX1R occupancy) is 80 to 90%.
